Target: T1, human NK2 receptor (Homo sapiens, UniProt P21452)
T1 construct: expressed in transfected cells; host or cells: Chinese hamster ovary (CHO) cells, membranes
T1 sequence (P21452 1-398): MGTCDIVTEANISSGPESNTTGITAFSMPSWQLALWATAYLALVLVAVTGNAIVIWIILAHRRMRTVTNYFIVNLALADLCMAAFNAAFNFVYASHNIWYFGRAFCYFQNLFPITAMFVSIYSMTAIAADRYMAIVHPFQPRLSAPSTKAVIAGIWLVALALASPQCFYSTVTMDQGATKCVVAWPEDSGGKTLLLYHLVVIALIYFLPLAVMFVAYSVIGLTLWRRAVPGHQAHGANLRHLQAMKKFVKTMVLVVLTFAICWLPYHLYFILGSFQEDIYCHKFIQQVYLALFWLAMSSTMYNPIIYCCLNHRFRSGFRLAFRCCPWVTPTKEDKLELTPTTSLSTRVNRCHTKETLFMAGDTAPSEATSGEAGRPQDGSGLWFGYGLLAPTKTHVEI
Assay: Competition with [3H] or [125I] NKA for binding to membranes of CHO cells expressing the cloned human NK2 receptor
Conditions: membranes from CHO cells expressing cloned human NK2 receptor, 90 min, 25° C.
Experimental: The affinity of the compounds of formula (I), and their salts, for the human NK2 receptor can be assessed in vitro by testing their ability to compete with [^3H] or [^125I] NKA (neurokinin A) for binding to membranes prepared from Chinese hamster ovary cells expressing the cloned human NK2 receptor using a modification of the method described in McLean, S. et al., J. Pharm. Exp. Ther., 267, 472–9 (1993). The membranes are incubated (90 min, 25° C.) with [^3H] or [^125I] NKA and a range of concentrations of the test compound. Non specific binding was determined in the presence of 1 μM SR-48968 (N-[(2S)-4-[4-(acetylamino)-4-phenyl-1-piperidinyl]-2-(3,4-dichlorophenyl)butyl]-N-methyl benzamide).

In order of falling Ki:
1. COC1CCN(CC[C@]2(c3ccc(Cl)c(Cl)c3)CCC(=O)N(c3ccccn3)C2)CC1 [Example 61, (5S)-5-(3,4-Dichlorophenyl)-5-[2-(4-methoxy-1-piperidinyl)ethyl]-1-(2-pyridinyl)-2-piperidinone]  12 nM
2. CC(=O)N(C)C1CCN(CC[C@]2(c3ccc(Cl)c(Cl)c3)CCC(=O)N(c3ccccn3)C2)CC1 [Example 158, N-(1-{2-[(3S)-3-(3,4-Dichlorophenyl)-6-oxo-1-(2-pyridinyl)piperidinyl]ethyl}-4-piperidinyl)-N-methylacetamide]  8 nM
3. O=C1CC[C@](CCN2CCC(O)(c3ccccn3)CC2)(c2ccc(Cl)c(Cl)c2)CN1c1ccccn1 [Example 92, (5S)-5-(3,4-Dichlorophenyl)-5-{2-[4-hydroxy-4-(2-pyridyl)-1-piperidinyl]ethyl}-1-(2-pyridinyl)-2-piperidinone]  7 nM
4. COc1cccc(N2C[C@@](CCN3CC(N4CCOCC4)C3)(c3ccc(Cl)c(Cl)c3)CCC2=O)n1 [Example 119, (5S)-5-(3,4-Dichlorophenyl)-1-(6-methoxy-2-pyridinyl)-5-{2-[3-(4-morpholinyl)-1-azetidinyl]ethyl}-2-piperidinone]  5.4 nM
5. Cc1cccc(N2C[C@@](CCN3CC(N4CCOCC4)C3)(c3ccc(Cl)c(Cl)c3)CCC2=O)n1 [Example 131, (5S)-5-(3,4-Dichlorophenyl)-1-(6-methyl-2-pyridinyl)-5-{2-[3-(4-morpholinyl)-1-azetidinyl]ethyl}-2-piperidinone]  3.8 nM
6. Cc1cccc(N2C[C@@](CCN3CC(N4CCC(O)CC4)C3)(c3ccc(Cl)c(Cl)c3)CCC2=O)n1 [Example 135a, (5S)-5-(3,4-Dichlorophenyl)-1-(6-methyl-2-pyridinyl)-5-{2-[3-(4-hydroxypiperidinyl)-1-azetidinyl]ethyl}-2-piperidinone]  3.7 nM
7. Cc1cccc(N2CC(CCN3CC(N4CCC(=O)CC4)C3)(c3ccc(Cl)c(Cl)c3)CCC2=O)n1 (centres unmarked) [Example 168, 5-(3,4-Dichlorophenyl)-1-(6-methyl-2-pyridinyl)-5-{2-[3-(4-oxo-1-piperidinyl)-1-azetidinyl]ethyl}-2-piperidinone]  2.6 nM
8. CC(=O)NC1(c2ccccc2)CCN(CC[C@]2(c3ccc(Cl)c(Cl)c3)CCC(=O)N(c3ccccn3)C2)CC1 [Example 90, N-(1-{2-[(3S)-3-(3,4-Dichlorophenyl)-6-oxo-1-(2-pyridinyl)piperidinyl]ethyl}-4-phenyl-4-piperidinyl)-acetamide]  2.4 nM
9. O=C1CC[C@](CCN2CC(N3CCC(O)CC3)C2)(c2ccc(Cl)c(Cl)c2)CN1c1ccccn1 [Example 73, (5S)-5-(3,4-Dichlorophenyl)-5-{2-[3-(4-hydroxy-1-piperidinyl)-1-azetidinyl]ethyl}-1-(2-pyridinyl)-2-piperidinone]  2.2 nM
10. Cc1cccc(N2C[C@@](CCN3CCC(O)(c4ccccc4)CC3)(c3ccc(Cl)c(Cl)c3)CCC2=O)n1 [Example 134, (5S)-5-(3,4-Dichlorophenyl)-1-(6-methyl-2-pyridinyl)-5-{{2-[4-hydroxy-4-phenyl]-1-piperidinyl}ethyl}-2-piperidinone]  1.9 nM

Test system: not given
Assay: not given
Conditions: not given

`Cc1cccc(N2C[C@@](CCN3CC(N4CCC(O)CC4)C3)(c3ccc(Cl)c(Cl)c3)CCC2=O)n1.O=C(O)/C=C/C(=O)O` showed a melting point of 175.5 to 177 °C.
